Experimental data as given in publication PMC10620931, “Assay Development for Metal-Dependent Enzymes—Influence of Reaction Buffers on Activities and Kinetic Characteristics” (ACS Omega, 2023).

Test system: T1, BLC23O
T1 construct: 6xHis-tag, expressed in E. coli BL21 (DE3); Ni-NTA and size exclusion; Mn2+-dependent
Test: absorbance of ring-cleavage product at […] nm, Michaelis-Menten fit
Type: biochemical, Halalkalibacterium ligniniphilum
Conditions: 50 mM HEPES pH 7.6, 10 μM Mn2+, 32.5 °C (optimal conditions)

- Km: 540 ± 20 µM
Compound: Cc1cccc(O)c1O [3-methylcatechol]
